# Experiments:
# [1] = test system: CXCL8(1-77) binding to heparin; test: Competition with CXCL8 for binding to immobilized heparin (ELISA-like); set-up: species or system human; details: heparin-coated plates, CXCL8(1-77) 0-300 nM, 2 h at 37°C; anti-CXCL8 detection, 450 nm; n ≥ 4; Figure 3A
# Protocol: (§1) The ability of the COOH-terminal peptides of CXCL9 and CXCL4 to compete for GAG binding with the inflammatory chemokines CXCL8 and CXCL1 was evaluated on heparin-binding plates [BD Biosciences or produced by Jason Whittle (School of Engineering/Future Industries Institute, University of South Australia, Australia)] ([42], [47]). In brief, GAGs (heparin, HS, and CS; Iduron; 25 µg/ml) were coated overnight at room temperature. Dilutions of COOH-terminal CXCL9 or CXCL4 peptide combined with recombinant human CXCL8(1-77) or recombinant murine CXCL1(1-72) (Peprotech, Rocky Hill, NJ, USA) were added in duplicate and incubated for 2 h at 37°C. Subsequently, bound CXCL8 or CXCL1 was detected with biotinylated polyclonal rabbit anti-human CXCL8 or biotinylated polyclonal goat anti-mouse CXCL1 (Peprotech) and horse radish peroxidase-labeled streptavidin. Finally, the peroxidase activity was quantified at 450 nm.
# (§2) Figure 3 CXCL9(74-93) competes with CXCL8 for binding to heparin, heparan sulfate (HS), and cellular glycosaminoglycans (GAGs). Competition between CXCL8 and COOH-terminal CXCL9 or CXCL4 peptides for binding to immobilized heparin (A) or HS (B) and to Chinese hamster ovary (CHO) cells (C) was performed. […] Bound CXCL8 was detected with biotinylated anti-human CXCL8 antibodies. (C) Binding of NH2-terminally biotinylated CXCL8(1-77) (300 nM) to CHO cells in the presence or absence of an excess CXCL9 peptide was detected by streptavidin-allophycocyanin and flow cytometry. The mean (± SEM) percentage inhibition of binding of CXCL8(1-77) to heparin, HS or cellular GAGs is indicated on the y-axis (n ≥ 4). Statistical comparison of the different competitors with CXCL9(74–103) was performed using the Mann–Whitney U-test (*p < 0.05).
# [2] = test system: CXCL1(1-72) binding to chondroitin sulfate (CS); test: Competition with CXCL1 for binding to immobilized CS; set-up: species or system murine; details: n ≥ 3, Figure 6B; for maximum inhibition of CXCL1 binding to CS: maximum achieved
# Protocol: as §1
# Competition between CXCL1 and COOH-terminal CXCL9 peptides for binding to immobilized heparan sulfate (HS) (A) and chondroitin sulfate (CS) (B) was performed. […] Bound CXCL1 was detected with biotinylated polyclonal goat anti-mouse CXCL1 antibodies. The mean (± SEM) percentage inhibition of CXCL1 binding to GAGs is indicated on the y-axis (n ≥ 3). Statistical comparison of the different competitors with CXCL9(74–103) was performed using the Mann–Whitney U-test.
# [3] = test system: CXCL8(1-77) binding to heparan sulfate (HS); test: Competition with CXCL8 for binding to immobilized HS (ELISA-like); set-up: species or system human; details: CXCL8(1-77) 0-300 nM, n ≥ 4, Figure 3B
# Protocol: as §1, §2
# [4] = Isothermal fluorescence titration (IFT), LMWH; type: binding; details: for affinity for LMWH: IFT, both COOH-terminal peptides compared
# Protocol: (§3) To study the interaction between CXCL9(74-93) and GAGs, titration experiments were performed as described by Gerlza et al. ([46]) using TAMRA-labeled synthetic CXCL9(74-93), TAMRA-labeled synthetic CXCL9(74-103), HS (Iduron BN1, Manchester, UK), low molecular weight heparin (LMWH; Iduron BN5), and chondroitin sulfate (CS; Carbosynth, Compton, UK).
# [5] = test system: CXCL8(1-77) binding to cellular GAGs on CHO cells; test: Competition with biotinylated CXCL8 for binding to CHO cells, flow cytometry; type: cell-based, Chinese hamster; details: mean, n ≥ 4, Figure 3C (300 nM CXCL8)
# Protocol: Binding of biotinylated CXCL9(74-103) and CXCL9(74-93) to CHO cells was assessed by flow cytometry as recently described ([42]). Briefly, cells were detached with phosphate-buffered saline (PBS) with 0.02% ethylenediaminetetraacetic acid (EDTA) and incubated with NH2-terminally biotinylated peptides. Subsequently, cells were incubated with streptavidin-allophycocyanin (BD Biosciences, San Jose, CA, USA) and analyzed by flow cytometry (FACSCalibur, BD Biosciences). To confirm inhibition of sulfation of cellular GAGs, part of the cells were stained with a mouse monoclonal anti-human HS antibody (Immunosource, Schilde, Belgium) and a secondary phycoerythrin-labeled goat anti-mouse antibody (BD Biosciences). Finally, cells were analyzed by flow cytometry. Analogously, binding of 100 nM biotinylated CXCL8 in the presence or absence of CXCL9(74-103) or CXCL9(74-93) was compared on CHO cells.
# as §2
# [6] = Isothermal fluorescence titration (IFT), CS; type: binding; details: for Kd: isothermal fluorescence titration, TAMRA-labeled peptide, read-out: affinity (KD) for CS
# Protocol: as §3
amount needed for same reduction of CXCL1 binding to CS relative to CXCL9(74-103) [2],"Kd ([4]; isothermal fluorescence titration, TAMRA-labeled peptide, read-out: affinity (KD value) for LMWH) [nM]",Substance,molar excess over CXCL8 giving 50% reduction of CXCL8 binding to heparin [1] [fold molar excess],maximum inhibition of CXCL1 binding to CS [2] [%],inhibition of CXCL8 binding on HS-coated plates [3],affinity for LMWH [4],inhibition of binding of biotinylated CXCL8 to cellular GAGs ([5]; 30-fold excess of peptide) [%],inhibition of binding of biotinylated CXCL8 to cellular GAGs ([5]; 100-fold excess of peptide) [%],Kd [6] [nM],relative affinity for CS ([6]; compared to CXCL9(74-93))
three times more,63 ± 13,"74KKKQKNGKKHQKKKVLKVRK93 [CXCL9(74-93), COOH-terminal peptide of CXCL9 lacking the 10 COOH-terminal amino acids of CXCL9(74-103)]",10,52,equally efficient in inhibiting CXCL8 binding,high and comparable affinity,31,50,296 ± 19,
,,"74KKKQKNGKKHQKKKVLKVRKSQRSRQKKTT103 [CXCL9(74-103), COOH-terminal peptide of CXCL9]",10,63,equally efficient in inhibiting CXCL8 binding,high and comparable affinity,53,,68 ± 4.6,about fourfold higher affinity for CS
